Data as given in publication PMC11079024, “Identification of a family of species-selective complex I inhibitors as potential anthelmintics” (Nature Communications, 2024).
“And” between values parts separate entries of the source, which are not always exact repeats. Identical values can stand only once. Like-named read-outs stand apart in the source and are kept apart here.

Test system: anthelmintic/nematicide-resistant C. elegans mutant strains
Assay: microbe, parasite or virus in culture
Settings: for LC50: Caenorhabditis elegans; for dose response data: mev-1 (tr355)
Text: In addition to the Caenorhabditis elegans wild-type N2 strain, this work included the following C. elegans strains: CB1003 (kynu-1(e1003) X); anthelmintic-resistant strains—CB3474 (ben-1(e1880) III), CB193 (unc-29(e193) I), HY496 (bre-1(ye4) IV), RB2119 (acr-23(ok2804) V), JD608 (avr-14(ad1302) I; avr-15(ad1051) V; glc-1 (pk54) V), NM1968 (slo-1(js379) V), RP2635 (mev-1(tr355) III); benzimidazole-resistant CRISPR strains—ECA882 (ben-1(ean64) III), ECA917 (ben-1(ean98) III), ECA1075 (ben-1(ean143) III), ECA1080 (ben-1(ean148) III). This work also featured several additional free-living nematode strains: C. briggsae strain AF16, P. pacificus strain PS312, and P. hermaphrodita strain B178. The four CRISPR-generated benzimidazole-resistant C. elegans mutants were generously provided by Prof. Erik Andersen (Johns Hopkins University); PS312 and B178 were generously provided by Prof. Peter Roy (University of Toronto); all other strains were obtained from the Caenorhabditis Genetics Center (CGC, University of Minnesota). All strains were cultured and propagated at 20 °C on NGM (nematode growth medium) agar plates seeded with E. coli OP50 (Stiernagle, 2006)[56].
Liquid development and viability assays were adapted from a previously established chemical screening protocol (Burns et al.)[24]. In brief, a saturated culture of E. coli HB101 was concentrated 2-fold in liquid NGM and 40 μL of this suspension was distributed to each well of a 96-well flat-bottom culture plate. 0.5 μL chemical solution (or DMSO alone) was added to each well (1% DMSO v/v) using either a multi-channel pipette or a pinning tool (V&P Scientific). L1 worms synchronized from an embryo preparation performed the day prior were diluted to a concentration of ~2 worms/μL in M9 buffer; 10 μL worm suspension was then added to each well. Culture plates were sealed with parafilm and placed in a plastic container lined with wet paper towels to prevent evaporation. Containers were then incubated for 6 days at 20 °C with shaking at 165 rpm. Following incubation, 300 μL M9 was added to each well to decrease the turbidity of the HB101-NGM suspension. Single images of each microplate well were then taken on a Nikon Ti Eclipse inverted microscope (Nikon NIS Elements AR). Images were processed using Python scripts to isolate worm-associated pixels from background. Scores of worm development and viability were determined as the sum of worm-associated pixels in each well. Development/viability scores for each well were divided by the development /viability scores for the corresponding DMSO controls, resulting in a relative viability value for each chemical. At least three biological replicates were performed for each dose-response experiment; relative viability values were averaged across replicates.
Supplementary Table 2. Sensitivity of anthelmintic/nematicide-resistant strains to Class A, B, and C
benzimidazole complex I inhibitors.
LC50s were estimated from fitted dose-
response curves; all dose response data are the mean of at least three biological replicates.
Supplementary Table 2. Davie et al.

c1ccc2[nH]c(-c3cscn3)nc2c1 [Thiabendazole]
0.056: C. elegans L1 relative development & viability (ECA917 F200Y (ben-1), 500 µM, […])
0.035: C. elegans L1 relative development & viability (CB3474 G104D (ben-1), 500 µM, […])
0.041: C. elegans L1 relative development & viability (ECA1080 E198A (ben-1), 500 µM, […])
1.000: C. elegans L1 relative development & viability (CB3474 G104D (ben-1), 1 µM, score 0-1 relative to DMSO, values >1 set to 1) | C. elegans L1 relative development & viability (CB3474 G104D (ben-1), 2 µM, score 0-1 relative to DMSO, values >1 set to 1) | C. elegans L1 relative development & viability (CB3474 G104D (ben-1), 3.9 µM, score 0-1 relative to DMSO, values >1 set to 1) | C. elegans L1 relative development & viability (CB3474 G104D (ben-1), 15.6 µM, score 0-1 relative to DMSO, values >1 set to 1) | C. elegans L1 relative development & viability (CB3474 G104D (ben-1), 31.3 µM, score 0-1 relative to DMSO, values >1 set to 1) | C. elegans L1 relative development & viability (CB3474 G104D (ben-1), 62.5 µM, score 0-1 relative to DMSO, values >1 set to 1) | C. elegans L1 relative development & viability (CB3474 G104D (ben-1), 125 µM, score 0-1 relative to DMSO, values >1 set to 1) | C. elegans L1 relative development & viability (CB3474 G104D (ben-1), 250 µM, score 0-1 relative to DMSO, values >1 set to 1) | C. elegans L1 relative development & viability (ECA917 F200Y (ben-1), 1 µM, score 0-1 relative to DMSO, values >1 set to 1) | C. elegans L1 relative development & viability (ECA917 F200Y (ben-1), 2 µM, score 0-1 relative to DMSO, values >1 set to 1) | C. elegans L1 relative development & viability (ECA917 F200Y (ben-1), 3.9 µM, score 0-1 relative to DMSO, values >1 set to 1) | C. elegans L1 relative development & viability (ECA917 F200Y (ben-1), 15.6 µM, score 0-1 relative to DMSO, values >1 set to 1) | C. elegans L1 relative development & viability (ECA917 F200Y (ben-1), 31.3 µM, score 0-1 relative to DMSO, values >1 set to 1) | C. elegans L1 relative development & viability (ECA917 F200Y (ben-1), 62.5 µM, score 0-1 relative to DMSO, values >1 set to 1) | C. elegans L1 relative development & viability (ECA917 F200Y (ben-1), 125 µM, score 0-1 relative to DMSO, values >1 set to 1) | C. elegans L1 relative development & viability (ECA917 F200Y (ben-1), 250 µM, score 0-1 relative to DMSO, values >1 set to 1) | C. elegans L1 relative development & viability (ECA1075 F167Y (ben-1), 1 µM, score 0-1 relative to DMSO, values >1 set to 1) | C. elegans L1 relative development & viability (ECA1075 F167Y (ben-1), 2 µM, score 0-1 relative to DMSO, values >1 set to 1) | C. elegans L1 relative development & viability (ECA1075 F167Y (ben-1), 3.9 µM, score 0-1 relative to DMSO, values >1 set to 1) | C. elegans L1 relative development & viability (ECA1075 F167Y (ben-1), 15.6 µM, score 0-1 relative to DMSO, values >1 set to 1) | C. elegans L1 relative development & viability (ECA1075 F167Y (ben-1), 31.3 µM, score 0-1 relative to DMSO, values >1 set to 1) | C. elegans L1 relative development & viability (ECA1075 F167Y (ben-1), 62.5 µM, score 0-1 relative to DMSO, values >1 set to 1) | C. elegans L1 relative development & viability (ECA1075 F167Y (ben-1), 125 µM, score 0-1 relative to DMSO, values >1 set to 1) | C. elegans L1 relative development & viability (ECA1075 F167Y (ben-1), 250 µM, score 0-1 relative to DMSO, values >1 set to 1) | C. elegans L1 relative development & viability (ECA1080 E198A (ben-1), 1 µM, score 0-1 relative to DMSO, values >1 set to 1) | C. elegans L1 relative development & viability (ECA1080 E198A (ben-1), 2 µM, score 0-1 relative to DMSO, values >1 set to 1) | C. elegans L1 relative development & viability (ECA1080 E198A (ben-1), 3.9 µM, score 0-1 relative to DMSO, values >1 set to 1) | C. elegans L1 relative development & viability (ECA1080 E198A (ben-1), 15.6 µM, score 0-1 relative to DMSO, values >1 set to 1) | C. elegans L1 relative development & viability (ECA1080 E198A (ben-1), 31.3 µM, score 0-1 relative to DMSO, values >1 set to 1) | C. elegans L1 relative development & viability (ECA1080 E198A (ben-1), 62.5 µM, score 0-1 relative to DMSO, values >1 set to 1) | C. elegans L1 relative development & viability (ECA1080 E198A (ben-1), 125 µM, score 0-1 relative to DMSO, values >1 set to 1) | C. elegans L1 relative development & viability (ECA1080 E198A (ben-1), 250 µM, score 0-1 relative to DMSO, values >1 set to 1)
0.028: C. elegans L1 relative development & viability (ECA1075 F167Y (ben-1), 500 µM, […])

Cc1nc2ccccc2n1Cc1ccc(Cl)cc1 [STK697993]
16.1 µM: LC50 (read-out: C. elegans Development & Viability LC50, slo-1(js379))
0.989 and 1.000: dose response data (concentration step 1 of 13 (c108))
28.3 µM: LC50 (read-out: C. elegans Development & Viability LC50, avr-14(ad1302), avr-15(ad1051), glc-1(pk54))
34.9 µM: LC50 (read-out: C. elegans Development & Viability LC50, acr-23(ok2804))
28.5 µM: LC50 (read-out: C. elegans Development & Viability LC50, mev-1(tr355))
31.1 µM: LC50 (read-out: C. elegans Development & Viability LC50, bre-1(ye4))
0.994 and 1.000: dose response data (concentration step 4 of 13 (c111))
38.6 µM: LC50 (read-out: C. elegans Development & Viability LC50, ben-1(e1880))
22.9 µM: LC50 (read-out: C. elegans Development & Viability LC50, unc-29(e193))
